Legend:
Format in all cases: cell-based
[1] = target: T1, TNK2 (ACK1, Activated Cdc42-associated kinase) (Homo sapiens, UniProt Q07912); assay: NanoBRET TE intracellular kinase assay with K-10 tracer in HEK293T cells
T1 construct: NanoLuc fusion (Promega NV4451)

FAK2 (PTK2B) = FAK2 (PTK2B) (Homo sapiens, UniProt Q14289); assay: MIB/MS kinome profiling, HS01/HS11 Schwann cells, […] (text: lysate treatment; legend: cells treated […] h)
[2] = target: T2, FAK1 (PTK2, focal adhesion kinase 1) (Homo sapiens, UniProt Q05397); assay: NanoBRET TE intracellular kinase assay with K-10 tracer in HEK293T cells
T2 construct: NanoLuc fusion (Promega NV1921)

[3] = target: T3, GAK (Cyclin G-associated kinase) (Homo sapiens, UniProt O14976); assay: as above
T3 construct: NanoLuc fusion (Promega NV1421)
T3 sequence (O14976 1-1311): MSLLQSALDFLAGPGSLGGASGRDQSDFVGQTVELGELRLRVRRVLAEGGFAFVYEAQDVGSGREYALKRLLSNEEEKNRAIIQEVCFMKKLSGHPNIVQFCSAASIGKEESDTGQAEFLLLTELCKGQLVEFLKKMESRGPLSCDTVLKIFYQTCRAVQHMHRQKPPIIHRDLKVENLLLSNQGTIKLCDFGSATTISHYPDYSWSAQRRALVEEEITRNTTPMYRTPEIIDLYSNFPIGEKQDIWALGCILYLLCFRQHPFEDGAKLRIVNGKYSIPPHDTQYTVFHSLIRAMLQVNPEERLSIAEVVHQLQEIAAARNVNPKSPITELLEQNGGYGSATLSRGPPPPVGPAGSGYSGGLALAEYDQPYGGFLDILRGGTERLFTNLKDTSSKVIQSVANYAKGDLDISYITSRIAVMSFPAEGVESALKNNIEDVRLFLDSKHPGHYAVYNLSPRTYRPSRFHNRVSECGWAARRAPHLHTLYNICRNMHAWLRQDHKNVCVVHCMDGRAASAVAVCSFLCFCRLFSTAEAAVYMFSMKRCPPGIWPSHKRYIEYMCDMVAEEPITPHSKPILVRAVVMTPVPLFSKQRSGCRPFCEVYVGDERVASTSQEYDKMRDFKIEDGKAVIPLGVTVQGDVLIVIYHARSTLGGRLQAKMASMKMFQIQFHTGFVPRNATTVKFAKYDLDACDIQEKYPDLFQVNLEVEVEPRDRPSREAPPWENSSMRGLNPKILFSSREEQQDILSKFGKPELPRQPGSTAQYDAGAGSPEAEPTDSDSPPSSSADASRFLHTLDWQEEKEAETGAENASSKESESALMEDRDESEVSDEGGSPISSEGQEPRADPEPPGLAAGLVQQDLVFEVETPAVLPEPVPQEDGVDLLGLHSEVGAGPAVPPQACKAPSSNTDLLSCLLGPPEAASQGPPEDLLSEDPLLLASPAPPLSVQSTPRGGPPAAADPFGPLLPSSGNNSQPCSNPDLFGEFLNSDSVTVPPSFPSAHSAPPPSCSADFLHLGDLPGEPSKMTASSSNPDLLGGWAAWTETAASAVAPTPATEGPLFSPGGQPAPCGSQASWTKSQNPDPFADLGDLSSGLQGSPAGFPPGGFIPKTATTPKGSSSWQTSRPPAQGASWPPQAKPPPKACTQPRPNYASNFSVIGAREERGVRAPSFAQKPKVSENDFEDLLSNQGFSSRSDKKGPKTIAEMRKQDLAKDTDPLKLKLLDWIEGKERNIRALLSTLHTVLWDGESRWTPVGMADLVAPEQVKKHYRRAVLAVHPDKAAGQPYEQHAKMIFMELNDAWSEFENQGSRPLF

[4] = target: T4, FER (Fps/Fes-related kinase) (Homo sapiens, UniProt P16591); assay: as above
T4 construct: NanoLuc fusion (Promega NV1331)
T4 sequence (P16591 whole entry, the tested form may be a part): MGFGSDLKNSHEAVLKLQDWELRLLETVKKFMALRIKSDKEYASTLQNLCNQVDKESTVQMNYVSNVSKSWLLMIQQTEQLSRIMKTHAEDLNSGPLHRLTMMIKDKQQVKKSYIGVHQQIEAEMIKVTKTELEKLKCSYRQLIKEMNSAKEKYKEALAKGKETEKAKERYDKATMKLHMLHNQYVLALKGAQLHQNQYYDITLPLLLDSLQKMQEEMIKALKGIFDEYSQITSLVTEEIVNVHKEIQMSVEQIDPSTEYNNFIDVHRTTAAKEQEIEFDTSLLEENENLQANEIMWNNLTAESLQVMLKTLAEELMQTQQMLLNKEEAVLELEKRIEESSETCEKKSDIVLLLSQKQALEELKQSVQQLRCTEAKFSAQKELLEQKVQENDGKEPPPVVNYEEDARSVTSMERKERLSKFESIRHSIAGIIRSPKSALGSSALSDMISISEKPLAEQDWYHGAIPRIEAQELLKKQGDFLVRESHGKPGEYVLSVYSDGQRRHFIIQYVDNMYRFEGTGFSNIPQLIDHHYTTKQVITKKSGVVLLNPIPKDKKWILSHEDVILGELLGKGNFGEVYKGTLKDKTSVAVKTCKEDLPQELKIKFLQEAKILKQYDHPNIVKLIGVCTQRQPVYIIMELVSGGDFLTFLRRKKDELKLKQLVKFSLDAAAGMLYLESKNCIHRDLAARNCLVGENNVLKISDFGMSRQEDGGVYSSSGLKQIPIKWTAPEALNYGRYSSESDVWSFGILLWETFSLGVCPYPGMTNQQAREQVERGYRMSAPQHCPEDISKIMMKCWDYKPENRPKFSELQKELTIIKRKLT

Chain of FAK2 (PTK2B) (Q14289 whole entry): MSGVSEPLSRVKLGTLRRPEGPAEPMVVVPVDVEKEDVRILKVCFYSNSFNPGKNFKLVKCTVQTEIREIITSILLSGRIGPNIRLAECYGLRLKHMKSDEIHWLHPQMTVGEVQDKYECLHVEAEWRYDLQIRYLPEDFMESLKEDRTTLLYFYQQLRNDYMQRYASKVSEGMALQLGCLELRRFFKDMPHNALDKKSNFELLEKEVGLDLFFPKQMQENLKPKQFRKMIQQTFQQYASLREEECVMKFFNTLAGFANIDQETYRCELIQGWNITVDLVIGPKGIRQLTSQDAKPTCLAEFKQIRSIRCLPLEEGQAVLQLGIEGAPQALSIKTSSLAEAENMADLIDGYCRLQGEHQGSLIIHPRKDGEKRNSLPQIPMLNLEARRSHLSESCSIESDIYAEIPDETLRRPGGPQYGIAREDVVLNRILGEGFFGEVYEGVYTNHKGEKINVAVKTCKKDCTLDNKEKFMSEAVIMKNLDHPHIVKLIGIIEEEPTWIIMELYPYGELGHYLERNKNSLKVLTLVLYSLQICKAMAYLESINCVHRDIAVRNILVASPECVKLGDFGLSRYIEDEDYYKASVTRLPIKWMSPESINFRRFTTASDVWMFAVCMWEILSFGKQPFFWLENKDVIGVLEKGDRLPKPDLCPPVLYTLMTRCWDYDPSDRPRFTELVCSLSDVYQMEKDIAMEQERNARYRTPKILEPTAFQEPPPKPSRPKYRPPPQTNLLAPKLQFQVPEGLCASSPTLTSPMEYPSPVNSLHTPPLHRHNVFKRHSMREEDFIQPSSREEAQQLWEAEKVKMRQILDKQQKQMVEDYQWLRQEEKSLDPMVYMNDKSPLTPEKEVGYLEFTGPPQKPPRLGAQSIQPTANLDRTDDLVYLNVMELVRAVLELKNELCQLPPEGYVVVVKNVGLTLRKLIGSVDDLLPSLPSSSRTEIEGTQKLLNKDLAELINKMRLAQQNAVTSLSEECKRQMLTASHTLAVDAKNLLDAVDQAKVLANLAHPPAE
T1 sequence (Q07912 whole entry, the tested form may be a part): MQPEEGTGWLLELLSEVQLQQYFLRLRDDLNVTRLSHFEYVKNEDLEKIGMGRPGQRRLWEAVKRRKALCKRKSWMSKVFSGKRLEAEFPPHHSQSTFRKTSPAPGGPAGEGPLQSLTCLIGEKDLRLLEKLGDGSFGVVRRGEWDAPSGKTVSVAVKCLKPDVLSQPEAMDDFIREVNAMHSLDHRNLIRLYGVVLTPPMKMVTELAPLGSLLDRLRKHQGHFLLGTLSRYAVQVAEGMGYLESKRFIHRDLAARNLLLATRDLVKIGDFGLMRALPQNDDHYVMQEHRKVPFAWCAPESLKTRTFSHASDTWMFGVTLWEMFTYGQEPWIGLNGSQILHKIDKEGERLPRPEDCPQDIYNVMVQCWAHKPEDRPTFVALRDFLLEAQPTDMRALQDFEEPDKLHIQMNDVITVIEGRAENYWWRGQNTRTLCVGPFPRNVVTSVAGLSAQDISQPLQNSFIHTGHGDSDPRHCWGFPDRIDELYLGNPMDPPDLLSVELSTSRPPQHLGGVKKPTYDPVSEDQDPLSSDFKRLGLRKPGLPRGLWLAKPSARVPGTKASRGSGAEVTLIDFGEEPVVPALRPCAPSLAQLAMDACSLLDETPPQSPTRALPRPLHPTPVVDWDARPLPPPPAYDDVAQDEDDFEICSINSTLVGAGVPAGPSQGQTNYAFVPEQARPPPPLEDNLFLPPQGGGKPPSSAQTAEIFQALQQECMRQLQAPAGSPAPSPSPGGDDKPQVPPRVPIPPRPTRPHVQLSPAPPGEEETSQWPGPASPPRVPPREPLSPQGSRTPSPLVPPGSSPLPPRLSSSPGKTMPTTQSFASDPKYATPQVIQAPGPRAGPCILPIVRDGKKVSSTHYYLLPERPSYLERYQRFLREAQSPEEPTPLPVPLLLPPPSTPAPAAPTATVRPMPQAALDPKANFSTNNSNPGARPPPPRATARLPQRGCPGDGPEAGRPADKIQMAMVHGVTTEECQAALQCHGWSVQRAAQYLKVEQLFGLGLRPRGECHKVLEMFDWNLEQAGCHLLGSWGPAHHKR
T2 sequence (Q05397 2-1052): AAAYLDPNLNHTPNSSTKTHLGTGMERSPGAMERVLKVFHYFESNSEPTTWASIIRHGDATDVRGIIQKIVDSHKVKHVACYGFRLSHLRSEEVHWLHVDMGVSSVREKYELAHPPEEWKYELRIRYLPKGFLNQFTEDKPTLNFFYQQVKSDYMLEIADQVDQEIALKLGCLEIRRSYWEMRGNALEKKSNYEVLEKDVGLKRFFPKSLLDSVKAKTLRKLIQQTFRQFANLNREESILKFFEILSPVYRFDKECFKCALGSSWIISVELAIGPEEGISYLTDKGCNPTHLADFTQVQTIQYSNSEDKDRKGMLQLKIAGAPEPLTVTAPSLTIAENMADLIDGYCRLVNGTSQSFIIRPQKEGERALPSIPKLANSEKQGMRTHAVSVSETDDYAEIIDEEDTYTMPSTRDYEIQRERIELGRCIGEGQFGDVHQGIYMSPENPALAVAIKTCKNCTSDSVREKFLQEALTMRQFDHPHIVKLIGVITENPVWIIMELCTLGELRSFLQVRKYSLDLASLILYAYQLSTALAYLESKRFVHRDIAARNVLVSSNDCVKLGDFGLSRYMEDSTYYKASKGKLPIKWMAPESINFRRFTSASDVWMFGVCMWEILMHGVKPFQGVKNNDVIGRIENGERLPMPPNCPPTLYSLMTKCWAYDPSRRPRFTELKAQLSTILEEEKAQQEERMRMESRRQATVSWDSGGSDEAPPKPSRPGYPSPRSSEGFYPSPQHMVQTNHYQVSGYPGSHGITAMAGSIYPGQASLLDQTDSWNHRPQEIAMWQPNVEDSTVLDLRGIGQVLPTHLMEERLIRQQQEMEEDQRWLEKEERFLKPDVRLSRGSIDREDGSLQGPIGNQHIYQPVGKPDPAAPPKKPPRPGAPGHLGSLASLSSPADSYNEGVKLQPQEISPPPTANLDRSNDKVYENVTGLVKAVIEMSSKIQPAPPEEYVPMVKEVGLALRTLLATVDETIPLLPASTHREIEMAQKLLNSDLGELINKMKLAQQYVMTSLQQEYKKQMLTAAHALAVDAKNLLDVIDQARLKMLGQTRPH

IC50 [1]: 350 nM | IC50 [2]: 573 nM | IC50 [3]: 155 nM | IC50 [4]: 304 nM
Structure (SMILES): COc1cc(N2CCC(N3CCN(C)CC3)CC2)ccc1Nc1ncc(Cl)c(Nc2ccccc2P(C)(C)=O)n1 [brigatinib]
MIB/MS kinome profiling, HS01/HS11 Schwann cells, 1 uM (text: lysate treatment;) (FAK2 (PTK2B)): kinases with the largest reduction in binding were FER, TNK2, FAK1 (PTK2) and FAK2 (PTK2B)
